Like-named read-outs stand apart in the source and are kept apart here. Marks after values point to notes of the source that are not given here. Where no end group is shown, it is not given here.
Key:
[1] = system: duodenum; experiment: Spontaneous contractility of whole-thickness preparations in organ bath after 6-day enteral obestatin; assay type: in vivo, piglets (Polish Landrace x Pietrain); details: O15: obestatin 15 μg/kg BW intra-stomach every 8 h, 6 days; duodenal segment (Fig 2)
Experimental: (§1) Piglets' BW was recorded every morning. […] The protein concentration in the milk formula was 20%. […] The tissues were attached to isotonic transducers (Letica Scientific Instruments, Spain) under a load of 1.0 g that were coupled with a PowerLab recording system (ADInstruments, Sydney, Australia). […] The tissues were then washed and allowed to equilibrate. […] Half of randomly selected jejunal segments were pre-treated with atropine.

[2] = system: middle jejunum; experiment: as above; assay type: in vivo, piglets (Polish Landrace x Pietrain); details: 6 days, middle jejunum (Fig 2)
Experimental: as §1

[3] = system: duodenum; experiment: ACh-stimulated or atropine-treated contractions; assay type: in vivo, piglets (Polish Landrace x Pietrain); details: 6 days, duodenum strips, mean ± SEM
Experimental: as §1

[4] = system: middle jejunum; experiment: ACh-stimulated or atropine-treated contractions; assay type: in vivo, piglets (Polish Landrace x Pietrain); details: 6 days, middle jejunum strips, mean ± SEM; for amplitude of atropine treated contractions: atropine pretreatment (ATR^-6)
Experimental: as §1

[5] = system: duodenum; experiment: Histology: thickness of intestinal muscularis layer; assay type: in vivo, piglets (Polish Landrace x Pietrain); details: 6 days, H&E histometry, mean ± SEM
Experimental: (§2) Piglets' BW was recorded every morning. […] The protein concentration in the milk formula was 20%. […] Briefly, the samples were routinely embedded in paraffin and cut into 4.5 μm sections and applied to silane-treated slides. Next, the sections were immersed in xylene for dewaxing and then in descending grades of alcohol for rehydration. The segments were routinely stained using hematoxylin and eosin.

[6] = system: middle jejunum; experiment: as above; assay type: in vivo, piglets (Polish Landrace x Pietrain); details: 6 days, H&E histometry, mean ± SEM
Experimental: as §2

[7] = system: duodenum; details: duodenum strips; for EFS-evoked amplitude of contraction: 6 days, mean ± SEM
[8] = system: middle jejunum; details: middle jejunum strips; for EFS-evoked amplitude of contraction: 6 days, mean ± SEM
[9] = system: duodenum; experiment: ACh-stimulated or atropine-treated contractions; assay type: in vivo, piglets (Polish Landrace x Pietrain); details: 6 days, duodenum strips, atropine pretreatment (ATR^-6), mean ± SEM
[10] = in vivo; details: male, Polish Landrace x Pietrain, pig, po, obestatin concentration in the blood plasma
[11] = O10: obestatin 10 μg/kg BW intra-stomach every 8 h
[12] = O15: obestatin 15 μg/kg BW intra-stomach every 8 h
[13] = O2: obestatin 2 μg/kg BW intra-stomach every 8 h, ACh^-4 (10^−4 M, cumulative)
[14] = O2: obestatin 2 μg/kg BW intra-stomach every 8 h, ACh^-5 (10^−5 M, cumulative)
[15] = O2: obestatin 2 μg/kg BW intra-stomach every 8 h, ACh^-6 (10^−6 M, cumulative)
[16] = O2: obestatin 2 μg/kg BW intra-stomach every 8 h, ACh^-7 (10^−7 M, cumulative)
[17] = O2: obestatin 2 μg/kg BW intra-stomach every 8 h, ACh^-8 (10^−8 M, cumulative)
[18] = O10: obestatin 10 μg/kg BW intra-stomach every 8 h, ACh^-4 (10^−4 M, cumulative)
[19] = O10: obestatin 10 μg/kg BW intra-stomach every 8 h, ACh^-5 (10^−5 M, cumulative)
[20] = O10: obestatin 10 μg/kg BW intra-stomach every 8 h, ACh^-6 (10^−6 M, cumulative)
[21] = O10: obestatin 10 μg/kg BW intra-stomach every 8 h, ACh^-7 (10^−7 M, cumulative)
[22] = O10: obestatin 10 μg/kg BW intra-stomach every 8 h, ACh^-8 (10^−8 M, cumulative)
[23] = O10: obestatin 10 μg/kg BW intra-stomach every 8 h, ACh^-9 (10^−9 M, cumulative)
[24] = O15: obestatin 15 μg/kg BW intra-stomach every 8 h, ACh^-4 (10^−4 M, cumulative)
[25] = O15: obestatin 15 μg/kg BW intra-stomach every 8 h, ACh^-5 (10^−5 M, cumulative)
[26] = O15: obestatin 15 μg/kg BW intra-stomach every 8 h, ACh^-6 (10^−6 M, cumulative)
[27] = O15: obestatin 15 μg/kg BW intra-stomach every 8 h, ACh^-7 (10^−7 M, cumulative)
[28] = O15: obestatin 15 μg/kg BW intra-stomach every 8 h, ACh^-8 (10^−8 M, cumulative)
[29] = O15: obestatin 15 μg/kg BW intra-stomach every 8 h, ACh^-9 (10^−9 M, cumulative)
[30] = O2: obestatin 2 μg/kg BW intra-stomach every 8 h
[31] = O2: obestatin 2 μg/kg BW intra-stomach every 8 h, Basal, EFS 0.5 Hz
[32] = O2: obestatin 2 μg/kg BW intra-stomach every 8 h, Basal, EFS 5 Hz
[33] = O2: obestatin 2 μg/kg BW intra-stomach every 8 h, Basal, EFS 50 Hz
[34] = O2: obestatin 2 μg/kg BW intra-stomach every 8 h, TTX 10^−6 M, EFS 0.5 Hz
[35] = O2: obestatin 2 μg/kg BW intra-stomach every 8 h, TTX 10^−6 M, EFS 5 Hz
[36] = O2: obestatin 2 μg/kg BW intra-stomach every 8 h, TTX 10^−6 M, EFS 50 Hz
[37] = O10: obestatin 10 μg/kg BW intra-stomach every 8 h, Basal, EFS 0.5 Hz
[38] = O10: obestatin 10 μg/kg BW intra-stomach every 8 h, Basal, EFS 5 Hz
[39] = O10: obestatin 10 μg/kg BW intra-stomach every 8 h, Basal, EFS 50 Hz
[40] = O10: obestatin 10 μg/kg BW intra-stomach every 8 h, TTX 10^−6 M, EFS 0.5 Hz
[41] = O10: obestatin 10 μg/kg BW intra-stomach every 8 h, TTX 10^−6 M, EFS 5 Hz
[42] = O10: obestatin 10 μg/kg BW intra-stomach every 8 h, TTX 10^−6 M, EFS 50 Hz
[43] = O15: obestatin 15 μg/kg BW intra-stomach every 8 h, Basal, EFS 0.5 Hz
[44] = O15: obestatin 15 μg/kg BW intra-stomach every 8 h, Basal, EFS 5 Hz
[45] = O15: obestatin 15 μg/kg BW intra-stomach every 8 h, Basal, EFS 50 Hz
[46] = O15: obestatin 15 μg/kg BW intra-stomach every 8 h, TTX 10^−6 M, EFS 0.5 Hz
[47] = O15: obestatin 15 μg/kg BW intra-stomach every 8 h, TTX 10^−6 M, EFS 5 Hz
[48] = O15: obestatin 15 μg/kg BW intra-stomach every 8 h, TTX 10^−6 M, EFS 50 Hz
[49] = TTX 10^−6 M, responses similar to saline-treated preparations

FNAPFDVGIKLSGAQYQQHGRAL-NH2 [obestatin]
amplitude of spontaneous contractions compared to C [1]: significantly higher
amplitude of spontaneous contractions compared to C [2, 11]: significant increase in the amplitude of contractions was observed in C piglets in comparison to O10 and O15 groups
amplitude of spontaneous contractions compared to C [2, 12]: significant increase in the amplitude of contractions was observed in C piglets in comparison to O10 and O15 groups
amplitude of ACh stimulated contractions [3, 13]: 14.1 ± 1.2^a^b mm
amplitude of ACh stimulated contractions [3, 14]: 11.2 ± 0.7 mm
amplitude of ACh stimulated contractions [3, 15]: 7.4 ± 0.9 mm
amplitude of ACh stimulated contractions [3, 16]: 7.1 ± 0.7 mm
amplitude of ACh stimulated contractions [3, 17]: 7.0 ± 0.7 mm
amplitude of ACh stimulated contractions ([3]; O2: obestatin 2 μg/kg BW intra-stomach every 8 h, ACh^-9 (10^−9 M, cumulative)): 6.2 ± 0.3 mm
amplitude of atropine treated contractions ([3]; O2: obestatin 2 μg/kg BW intra-stomach every 8 h, atropine pretreatment (ATR^-6)): 1.26 ± 0.2 mm
amplitude of ACh stimulated contractions [3, 18]: 12.3 ± 1.1^a^b mm
amplitude of ACh stimulated contractions [3, 19]: 8.2 ± 0.9 mm
amplitude of ACh stimulated contractions [3, 20]: 6.3 ± 0.9 mm
amplitude of ACh stimulated contractions [3, 21]: 6.1 ± 0.9 mm
amplitude of ACh stimulated contractions [3, 22]: 6.0 ± 0.8 mm
amplitude of ACh stimulated contractions [3, 23]: 5.9 ± 0.9 mm
amplitude of ACh stimulated contractions [3, 24]: 15.1 ± 0.4^b mm
amplitude of ACh stimulated contractions [3, 25]: 9.6 ± 0.6 mm
amplitude of ACh stimulated contractions [3, 26]: 6.7 ± 0.8 mm
amplitude of ACh stimulated contractions [3, 27]: 5.9 ± 0.6 mm
amplitude of ACh stimulated contractions [3, 28]: 5.4 ± 0.4 mm
amplitude of ACh stimulated contractions [3, 29]: 5.3 ± 0.5 mm
amplitude of ACh stimulated contractions [4, 13]: 12.3 ± 1.0^a^b mm
amplitude of ACh stimulated contractions [4, 14]: 8.0 ± 0.9 mm
amplitude of ACh stimulated contractions [4, 15]: 6.3 ± 0.9^a^b mm
amplitude of ACh stimulated contractions [4, 16]: 6.1 ± 0.8 mm
amplitude of ACh stimulated contractions [4, 17]: 6.0 ± 0.7 mm
amplitude of atropine treated contractions [4, 30]: 0.97 ± 0.1^a^b mm
amplitude of ACh stimulated contractions [4, 18]: 12.5 ± 0.9^b mm
amplitude of ACh stimulated contractions [4, 19]: 10.1 ± 0.7 mm
amplitude of ACh stimulated contractions [4, 20]: 7.0 ± 0.9^b mm
amplitude of ACh stimulated contractions [4, 21]: 4.8 ± 0.9 mm
amplitude of ACh stimulated contractions [4, 22]: 4.6 ± 0.9 mm
amplitude of ACh stimulated contractions [4, 23]: 3.9 ± 0.8^a^b mm
amplitude of atropine treated contractions [4, 11]: 1.10 ± 0.2^b mm
amplitude of ACh stimulated contractions [4, 24]: 13.7 ± 0.8^b mm
amplitude of ACh stimulated contractions [4, 25]: 9.0 ± 0.8 mm
amplitude of ACh stimulated contractions [4, 26]: 7.3 ± 0.8^b mm
amplitude of ACh stimulated contractions [4, 27]: 6.8 ± 0.6 mm
amplitude of ACh stimulated contractions [4, 28]: 6.7 ± 0.7 mm
amplitude of ACh stimulated contractions [4, 29]: 6.6 ± 0.7^b mm
amplitude of atropine treated contractions [4, 12]: 1.20 ± 0.1^b mm
Thickness of muscularis layer [5, 30]: 106 ± 11^b μm
Thickness of muscularis layer [5, 11]: 107 ± 8^b μm
Thickness of muscularis layer [5, 12]: 89 ± 8^b μm
Thickness of muscularis layer [6, 30]: 88 ± 9^a μm
Thickness of muscularis layer [6, 11]: 63 ± 7^b μm
Thickness of muscularis layer [6, 12]: 66 ± 4^b μm
EFS-evoked amplitude of contraction [7, 31]: 2.53 ± 0.31^a mm
EFS-evoked amplitude of contraction [7, 32]: 2.78 ± 0.35^a mm
EFS-evoked amplitude of contraction [7, 33]: 2.95 ± 0.28^a^c mm
EFS-evoked amplitude of contraction [7, 34]: 0.48 ± 0.11 mm
EFS-evoked amplitude of contraction [7, 35]: 0.54 ± 0.11 mm
EFS-evoked amplitude of contraction [7, 36]: 0.82 ± 0.21 mm
EFS-evoked amplitude of contraction [7, 37]: 1.08 ± 0.26^b mm
EFS-evoked amplitude of contraction [7, 38]: 1.25 ± 0.32^b mm
EFS-evoked amplitude of contraction [7, 39]: 1.20 ± 0.29^a^d mm
EFS-evoked amplitude of contraction [7, 40]: 0.56 ± 0.16 mm
EFS-evoked amplitude of contraction [7, 41]: 0.59 ± 0.15 mm
EFS-evoked amplitude of contraction [7, 42]: 0.86 ± 0.22 mm
EFS-evoked amplitude of contraction [7, 43]: 2.34 ± 0.30^a mm
EFS-evoked amplitude of contraction [7, 44]: 2.74 ± 0.37^a mm
EFS-evoked amplitude of contraction [7, 45]: 3.38 ± 0.36^b^c mm
EFS-evoked amplitude of contraction [7, 46]: 0.40 ± 0.09 mm
EFS-evoked amplitude of contraction [7, 47]: 0.46 ± 0.01 mm
EFS-evoked amplitude of contraction [7, 48]: 0.77 ± 0.22 mm
effect of obestatin on EFS-evoked contraction following pre-incubation with TTX [7, 49]: the effects of obestatin were blocked
EFS-evoked amplitude of contraction [8, 31]: 0.53 ± 0.26^a^c mm
EFS-evoked amplitude of contraction [8, 32]: 0.70 ± 0.35^a mm
EFS-evoked amplitude of contraction [8, 33]: 1.22 ± 0.59^a mm
EFS-evoked amplitude of contraction [8, 34]: 0.17 ± 0.07 mm
EFS-evoked amplitude of contraction [8, 35]: 0.20 ± 0.08 mm
EFS-evoked amplitude of contraction [8, 36]: 0.31 ± 0.17 mm
EFS-evoked amplitude of contraction [8, 37]: 1.75 ± 0.18^a^d mm
EFS-evoked amplitude of contraction [8, 38]: 1.75 ± 0.18^a^b mm
EFS-evoked amplitude of contraction [8, 39]: 1.49 ± 0.30^a mm
EFS-evoked amplitude of contraction [8, 40]: 0.28 ± 0.10 mm
EFS-evoked amplitude of contraction [8, 41]: 0.30 ± 0.12 mm
EFS-evoked amplitude of contraction [8, 42]: 0.45 ± 0.15 mm
EFS-evoked amplitude of contraction [8, 43]: 2.47 ± 0.23^b^d mm
EFS-evoked amplitude of contraction [8, 44]: 2.74 ± 0.37^b mm
EFS-evoked amplitude of contraction [8, 45]: 3.76 ± 0.29^b mm
EFS-evoked amplitude of contraction [8, 46]: 0.46 ± 0.23 mm
EFS-evoked amplitude of contraction [8, 47]: 0.34 ± 0.11 mm
EFS-evoked amplitude of contraction [8, 48]: 0.61 ± 0.27 mm
effect of obestatin on EFS-evoked contraction following pre-incubation with TTX [8, 49]: the effects of obestatin were blocked
amplitude of atropine treated contractions [9, 11]: 0.97 ± 0.1 mm
amplitude of atropine treated contractions [9, 12]: 1.0 ± 0.1 mm
level at 0.5 h ([10]; 2 ug/kg BW): 0.369 ± 0.026 ng/mL
level at 1 h ([10]; 2 ug/kg BW): 0.37 ± 0.023 ng/mL
level at 0.5 h ([10]; 10 ug/kg BW): 0.413 ± 0.011 ng/mL
level at 1 h ([10]; 10 ug/kg BW): 0.475 ± 0.022 ng/mL
level at 0.5 h ([10]; 15 ug/kg BW): 0.405 ± 0.026 ng/mL
level at 1 h ([10]; 15 ug/kg BW): 0.45 ± 0.053 ng/mL

From article PMC7089538, “The effects of intra-stomach obestatin administration on intestinal contractility in neonatal piglets fed milk formula” (PLoS ONE, 2020)
